Calls of active or inactive are those of the source.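 Rule for the calls: active = IC50 of 10 µM or lower; inactive = IC50 above 10 µM.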
These compounds were tested on T. brucei BSF 427 growth, AlamarBlue, 48 h (assay: trypanosome proliferation inhibition – absorbance, assay provider, round 3, counter-screen for T. brucei MetRS inhibitor project, dose response (AID 1053204)).
`CCN(CC)C(=O)C(=O)c1cn(CCNc2cccc(C(F)(F)F)c2)c2ccccc12` was tested, and the IC50 was 5500 nM.
In the case of `CCN(CC)C(=O)C(=O)c1cn(CC(=O)Nc2cc(Oc3ccc(OC)cc3)cc(C(F)(F)F)c2)c2ccccc12`, the IC50 is reported as 830 nM.
With `CCN(CC)C(=O)C(=O)c1cn(CC(=O)Nc2cc(Oc3ccccc3OC)cc(C(F)(F)F)c2)c2ccccc12` the IC50 was 952 nM.
`Nc1c(Cl)ncnc1Nc1ccc(C(=O)O)cc1` was tested, and the IC50 was > 10000 nM (inactive).
`CCN(CC)C(=O)C(=O)c1cn(CC(=O)Nc2cc(Oc3ccccc3F)cc(C(F)(F)F)c2)c2ccccc12` was tested, and the IC50 was 1630 nM.
With `CCN(CC)C(=O)Cc1cn(CC(=O)Nc2cccc(C(F)(F)F)c2)c2ccccc12` the IC50 was > 10000 nM (inactive).
Work on `O=C(Cn1cc(C(=O)C(=O)NCc2ccccc2)c2ccccc21)Nc1cc(Oc2ccccc2)cc(C(F)(F)F)c1` yielded an IC50 of 916 nM.
For `CCN(CC)C(=O)C(=O)c1cn(CCNc2cc(Oc3ccccc3)cc(C(F)(F)F)c2)c2ccccc12`, the IC50 was 4080 nM.
Work on `O=C(Cc1ccc(Nc2nc3ccc(Br)cc3[nH]2)cc1)NCCc1cccs1` yielded an IC50 of 8910 nM.
`CCN(CC)C(=O)C(=O)c1cn(CC(=O)Nc2cc(Oc3ccc(F)cc3)cc(C(F)(F)F)c2)c2ccccc12` showed an IC50 of 1420 nM.

Source: PubChem BioAssay AID1053204 (The Scripps Research Institute Molecular Screening Center, 2014)
